Assays:
[1] = tested on: ischemic brain, damaged neuronal cells; test: DDC staining of ischemic damage following transient MCA occlusion; format: in vivo, rats; settings: 2 h MCA occlusion and reperfusion, DDC at 22 hours
Procedure: A. Administration of DDC in-vivo: Injection of 200 μl of DDC intravenously. Following 1-2 hours, animal is sacrificed, and the desired organ is placed in a test tube or on a small plate, suitable for liquid nitrogen freezing. The plate is then covered with an aluminum foil, and transferred to liquid nitrogen. Following 5-30 minutes the specimen is being frozen to −80° C. and kept at −80° C. for at least 16 hr. B. Analysis of the Specimen: • a. Whole organ imaging Ex-vivo whole organ fluorescence imaging may be carried out on freshly excised specimen, that can be analyzed under a stereomicroscope (such as Leica MZ FL III, Leica Switzerland). […] Emitted fluorescence can be imaged using appropriate camera and software, such as a Leica DC 300F Distal camera and images can be processed and analyzed by Leica QWin Lite software. • b. […] Analysis of the tissue sections can be performed using a fluorescence microscope with a UV filter characterized by excitation at 360-370 nm (band pass) and emission at 420 nm (barrier filter) In case that staining of the examined tissue is desired, the following procedures can be applied:
Transient focal ischemia was induced by middle cerebral artery (MCA) occlusion and reperfusion. […] At 22 hours from MCA occlusion, neurological score was assessed and DDC was injected I.V. (as detailed in DDC protocols II-A) for a successive 2 h before sacrificing the animals. […]

[2] = tested on: cardiomyocytes of the ischemic heart; test: Detection by DDC of ischemic damage in the heart following ischemia-reperfusion; format: in vivo, mice; settings: ischemia 40 minutes, reperfusion 90 minutes; DDC at onset of ischemia
Procedure: Ischemia/Reperfusion was induced in male Swiss mice by ligation and subsequent release of a suture around the left anterior descending coronary artery. Ischemia was for 40 minutes followed by reperfusion of 90 minutes. DDC was injected to the Jugular vein at the onset of ischemia. Uptake of DDC was followed at real time in the beating heart using a Laica stereomycroscope. Pictures were taken at the end point of the reperfusion (90 minutes) and collected by Hamamatsu CCD camera. For inhibition by caspase inhibitors, animals were injected with a pan-Caspase inhibitor in two doses of 10 mg/kg given at the time of reperfusion. […] Figures (C) and (D) Cryosections prepared from the heart that was collected at the end point of the experiments DDC fluorescence can be viewed in single apoptotic cardiomyocites. This example support the role of DDC in detecting ischemic cells in the level of a single apoptotic cell.

[3] = tested on: C6-Glioma tumor; test: Accumulation of DDC in apoptotic cells of glioma following irradiation; format: in vivo, mice; settings: 20 h after radiation (6 gray)
[4] = tested on: L5178-S murine lymphoma tumors; test: Quantification of DDC uptake into lymphoma tumor after radiotherapy; format: in vivo, mice; settings: DDC for 2 hours
Procedure: Extraction of DDC uptake compound from cytosolic extracts of organs or tissues for quantitative measurement of DDC uptake: • a. Excising the relevant organ from animals, that were previously injected with DDC. • b. Weighting the organs and homogenize using tissue homogenizer in a cold Buffer-Hepes • c. Following total homogenization, centrifuging the sample at 13,800 rpm for 20 min at 4° C. and transferring the supernatant to a new test tube. • d. Repeating step c and taking the supernatant for quantitative fluorescence evaluation. Alternatively, the supernatant can be stored at −80° C. until use. • e. Placing a sample of 100 ul of organ suspension into each of three wells of a black to microtiter plate. • f. Measuring the fluorescence intensity of DDC (excitation 360 nm, emission 535 nm) using a fluorescence plate reader.
Creating a calibration curve for the fluorescence plate reader using serial dilution of the DDC compound: 1:10, 1:20, 1:40, 1:80, 1:160, 1:320, 1:640, 1:1280.
Murine lymphoma model was established using DBA/2 mice injected subcutaneously with L5178-S murine lymphoma cells. Tumor treatment, by multiply fractionated X-irradiation (3 fractions of 6 Gy/day), started when the tumor reached in diameter 6-8 mm (approximately ten days after tumor implantation). At different time points (24, 48 or 72 hours) following irradiation, mice were injected with DDC for 2 hours. Tumors were harvested from control and radiation-treated animals and processed for quantitative analysis of DDC uptake into the tumor.

[5] = tested on: C26 colon carcinoma tumors; test: DDC binding versus TUNEL and H&E in colon carcinoma after Doxorubicin; format: in vivo, mice; settings: 48 h after Doxorubicin 20 mg/kg; consecutive slides
Procedure: A. Administration of DDC in-vivo: Injection of 200 μl of DDC intravenously. Following 1-2 hours, animal is sacrificed, and the desired organ is placed in a test tube or on a small plate, suitable for liquid nitrogen freezing. The plate is then covered with an aluminum foil, and transferred to liquid nitrogen. Following 5-30 minutes the specimen is being frozen to −80° C. and kept at −80° C. for at least 16 hr. B. Analysis of the Specimen: • a. Whole organ imaging Ex-vivo whole organ fluorescence imaging may be carried out on freshly excised specimen, that can be analyzed under a stereomicroscope (such as Leica MZ FL III, Leica Switzerland). DDC may be visualized using 360cx and >420cm nm filter set. Emitted fluorescence can be imaged using appropriate camera and software, such as a Leica DC 300F Distal camera and images can be processed and analyzed by Leica QWin Lite software. • b. Histological analysis, from the frozen organ or tissue, 4 μm cryosections are prepared on slides. Analysis of the tissue sections can be performed using a fluorescence microscope with a UV filter characterized by excitation at 360-370 nm (band pass) and emission at 420 nm (barrier filter) In case that staining of the examined tissue is desired, the following procedures can be applied: […]

Compound: CN(C)c1cccc2c(S(=O)(=O)NC(CSSCC(NS(=O)(=O)c3cccc4c(N(C)C)cccc34)C(=O)O)C(=O)O)cccc12 (stereo not drawn) [DDC]
- DDC staining around the ischemic core and in the non-damaged contra-lateral hemisphere [1]: No staining was detected
- DDC staining of the ischemic core ([1]; ex-vivo coronal section): high intensity staining
- uptake of DDC in cardiomyocytes [2]: identified in individual cadiomyocites
- binding to viable tumor cells or normal brain tissue [3]: not binding
- labeling of cells undergoing cell death within the glioma tumor [3]: specifically and selectively labeled cells undergoing cell death
- DDC uptake into the tumor, times higher over the control mean values ([4]; 24 hours following X-irradiation (3 fractions of 6 Gy/day)): 3.68 times
- DDC uptake into the tumor, times higher over the control mean values ([4]; 48 hours following X-irradiation (3 fractions of 6 Gy/day)): 4.69 times
- DDC uptake into the tumor, times higher over the control mean values ([4]; 72 hours following X-irradiation (3 fractions of 6 Gy/day)): 6.74 times
- correlation of DDC staining with H&E and TUNEL staining [5]: highly correlated with both H&E (C) and TUNEL (B) staining
